Where two headings read alike, the source gives them in different places.
How the values were obtained:
[1] = target: T1, PDE4B (Homo sapiens, UniProt Q07343); assay: PDE4B enzyme activity assay (PDE-Glo Phosphodiesterase Assay Kit); type: biochemical; details: for IC50 (PDE4D)/IC50 (PDE4B): selectivity ratio
T1 construct: purchased Enzo Life Sciences BML-SE522-0020
Protocol: (§1) For the previously synthesized compounds, the inhibitory activity of the compounds against PDE4B and against PDE4D was tested by using PDE-Glo Phosphodiesterase Assay Kit (promega, V1361). In short, in accordance with the instructions of the kit, a concentrated stock solution (10 mM) the compound to be tested was first prepared with DMSO solvent, and the concentrated stock solution was then diluted into 10× working solutions with a Reaction buffer provided in the kit. With the Reaction buffer, on ice, PDE4B enzyme (Enzo Life Sciences, BML-SE522-0020) was diluted to a concentration of 1 ng/μl to obtain a PDE4B enzyme working solution, and PDE4D enzyme (Enzo Life Sciences, BML-SE523-0020) was diluted to a concentration of 4 ng/μl to obtain a PDE4D enzyme working solution. 1.5 μl of the PDE4B working solution (or PDE4D working solution) and 1 μl of the compound working solution were added to wells of 384-well plate (Corning, CLS3707), and incubated with shaking at room temperature for 5 min, followed by adding 2.5 μl of cAMP (in Reaction buffer, 2 μM) per well, incubating with shaking at room temperature for 20 min. 2.5 μl/well of 1× Termination Buffer, and then 2.5 μl/well of 1× Detection Buffer were added, and further incubated with shaking at room temperature for 20 min. 10 μl/well of 1× Kinase-Glo was added, and the plate was incubated with shaking at room temperature for 10 min, and bioluminescence was measured with PheraStar instrument. The experimental results were plotted with GraphPad Prism software, and fitted to calculate IC50 of each compound.

[2] = target: T2, PDE4D (Homo sapiens, UniProt Q08499); assay: PDE4D enzyme activity assay (PDE-Glo Phosphodiesterase Assay Kit); type: biochemical
T2 construct: purchased Enzo Life Sciences BML-SE523-0020
T2 sequence (Q08499 whole entry): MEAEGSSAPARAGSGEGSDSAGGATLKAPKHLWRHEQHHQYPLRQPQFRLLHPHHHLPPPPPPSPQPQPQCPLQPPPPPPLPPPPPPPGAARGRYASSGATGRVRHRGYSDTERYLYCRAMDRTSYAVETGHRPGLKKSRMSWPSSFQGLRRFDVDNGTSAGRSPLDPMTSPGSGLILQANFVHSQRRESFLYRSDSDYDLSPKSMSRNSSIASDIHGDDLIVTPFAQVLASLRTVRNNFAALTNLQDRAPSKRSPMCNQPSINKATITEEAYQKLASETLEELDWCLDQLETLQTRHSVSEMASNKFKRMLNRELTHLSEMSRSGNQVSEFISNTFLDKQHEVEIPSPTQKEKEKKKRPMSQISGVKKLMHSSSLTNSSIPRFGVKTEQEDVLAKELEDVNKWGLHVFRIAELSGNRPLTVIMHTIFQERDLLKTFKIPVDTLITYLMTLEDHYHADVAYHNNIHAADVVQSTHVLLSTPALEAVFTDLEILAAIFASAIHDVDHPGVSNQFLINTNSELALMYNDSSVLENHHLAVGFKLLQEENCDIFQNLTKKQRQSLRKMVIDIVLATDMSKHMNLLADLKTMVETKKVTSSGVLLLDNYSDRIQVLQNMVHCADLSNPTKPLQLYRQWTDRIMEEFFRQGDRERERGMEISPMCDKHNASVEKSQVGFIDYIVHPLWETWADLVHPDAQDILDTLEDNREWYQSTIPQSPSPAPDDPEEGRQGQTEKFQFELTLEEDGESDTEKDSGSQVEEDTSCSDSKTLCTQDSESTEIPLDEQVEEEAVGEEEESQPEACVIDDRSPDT
Protocol: as §1

[3] = test system: LPS-induced secretion of TNFα in human PBMCs; assay: LPS-induced secretion of TNFα in human PBMCs; type: cell-based; details: Homo sapiens, PBMC, 24 h, LPS 10 ng/ml
Protocol: Extraction process of peripheral blood mononuclear cells (PBMCs): one unit of human peripheral blood concentrate (concentrated from 200 cc peripheral blood) was sucked and added with 0.9% saline until a total volume reached 120 ml, and mixed homogenously. 15 ml Lymphoprep™ was added into 50 ml centrifuge tube, and then 30 ml of diluted blood concentrate was carefully and slowly added thereto, allowing the diluted blood to be stacked on the layered solution and preventing the diluted blood from being mixed into the separated solutions or breaking the surface of the separated solution, wherein a ratio of Lymphoprep™ to the diluted blood was 1:2. The centrifuge tubes were balanced and placed in a horizontal centrifuge (eppendorf, 5810R), and centrifuged at 800 g and 20° C. for 20 min. The centrifuge tubes were carefully taken out. PBMCs were absorbed by directly inserting the Pasteur pipette deep into the buffy coat. The obtained PBMCs were gently pipetted with 3 times the volume of 0.9% normal saline or PBS (without calcium or magnesium ions) to mix homogenously. After that, the cells were centrifuged at 250 g and 20° C. for 10 min, the supernatant was removed to remove the platelets remaining in the cell suspension. The obtained cell pellet was resuspended in 20 ml of PBS, and counted using trypan blue.
Compound screening by using PBMCs: the PBMC suspension obtained above was centrifuged to remove PBS, then resuspended in complete medium (RPMI1640+10% FBS+1% P/S) and counted. 100 μL/well of the cells was seeded at 5×10^4/well. Each of the compounds to be screened was prepared as 4 times the final concentration, which was added to the cells at 50 μL/well. The compound was pre-incubated for 30 min in advance of being added to the cells. Meanwhile, control wells to which the compound was not added were provided. A final stimulation concentration of LPS was 10 ng/ml, and LPS was formulated as 4 times the final stimulation concentration, and added to the cells at 50 μL/well. Meanwhile, control wells, i.e., wells without LPS were provided. The cells were incubated for 24 h, and 10% of the supernatant was collected for detection. The obtained supernatant was detected using Invitrogen's Human TNF-α kit (REF: 88-7346-88).

[4] = test system: LPS-stimulated TNF-α release; assay: LPS-stimulated TNF-α release in mice; type: in vivo, Balb/c mice; details: Mus musculus, oral 50 mg/kg (positive control 100 mg/kg), 1 mg/kg LPS i.p.
Protocol: 18 Balb/c mice (6 to 8 weeks) were randomly assigned to a blank group, a model group, and an administration group, 6 mice in each group. A vehicle (blank group, model group) or 50 mg/kg compound (administration group, where the dose for the positive control group was 100 mg/kg) was orally administrated. 30 min after the oral administration, PBS (blank group) or 1 mg/kg LPS (model group and administration group) was injected intraperitoneally. 90 min or 120 min after the intraperitoneal injection, blood was collected from the hearts of the mice, and still stood at 2-8° C. for 4 hours, and centrifuged at 5000 rpm for 10 min to collect the serum. The serum was stored at −80° C. for testing.
The serum TNF-α level was tested using a mouse TNF-α detection kit (Mouse TNFa ELISA kit: Biolegend, Cat: 430904). The inhibitory activity of the compounds against the TNF-α release was calculated based on the serum TNF-α level.
Inhibitory activity of compound %={1−(TNFα concentration of administration group−TNFα concentration of blank group)/(TNFα concentration of model group−TNFα concentration of blank group)}×100%.

[5] = 1.5 h, blood 90 min after LPS, read-out: Inhibition rate (%) of LPS-stimulated TNF-α release, 90 min
[6] = 2 h, blood 120 min after LPS, read-out: Inhibition rate (%) of LPS-stimulated TNF-α release, 120 min

T1 sequence (Q07343 whole entry): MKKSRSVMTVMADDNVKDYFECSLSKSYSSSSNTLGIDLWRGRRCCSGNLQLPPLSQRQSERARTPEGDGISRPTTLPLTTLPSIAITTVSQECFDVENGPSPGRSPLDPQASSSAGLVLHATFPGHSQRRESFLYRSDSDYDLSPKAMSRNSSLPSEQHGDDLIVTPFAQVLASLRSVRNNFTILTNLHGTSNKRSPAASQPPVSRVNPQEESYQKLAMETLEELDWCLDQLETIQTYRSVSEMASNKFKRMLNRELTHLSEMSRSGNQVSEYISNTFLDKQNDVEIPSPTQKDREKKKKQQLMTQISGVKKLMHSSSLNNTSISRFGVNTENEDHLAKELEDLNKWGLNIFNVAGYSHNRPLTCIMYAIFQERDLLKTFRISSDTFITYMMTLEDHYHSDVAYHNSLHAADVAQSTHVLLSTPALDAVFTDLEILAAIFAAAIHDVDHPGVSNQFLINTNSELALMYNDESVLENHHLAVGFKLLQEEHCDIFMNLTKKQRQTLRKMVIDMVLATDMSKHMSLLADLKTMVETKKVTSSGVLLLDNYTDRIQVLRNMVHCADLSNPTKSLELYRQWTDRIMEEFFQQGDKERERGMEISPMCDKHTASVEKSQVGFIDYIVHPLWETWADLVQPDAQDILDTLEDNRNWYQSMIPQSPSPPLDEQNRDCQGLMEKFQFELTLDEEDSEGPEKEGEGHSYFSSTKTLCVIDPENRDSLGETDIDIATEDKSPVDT

SMILES | IC50 [1] [nM] | IC50 (PDE4D)/IC50 (PDE4B) [1] | IC50 [2] [nM] | IC50 [3] [nM] | inhibition in vivo at 50 mg/kg [4, 5] [%] | inhibition in vivo at 50 mg/kg [4, 6] [%]
COc1ccc([C@@H]2CN(C(=O)[C@@H](O)CO)C[C@@]2(C)[C@@H](C)O)cc1OC1CN(c2ccc(CC(F)(F)F)cn2)C1 [Compound 033, (S)-2,3-dihydroxy-1-((3S,4S)-3-((R)-1-hydroxyethyl)-4-(4-methoxy-3-((1-(5-(2,2,2-trifluoroethyl)pyridin-2-yl)azetidin-3-yl)oxy)phenyl)-3-methylpyrrolidin-1-yl)propan-1-one] | 0.22 | 12.8 | 2.81 | 0.53 | 70.3 | 75.9
COc1ccc([C@@H]2CN(C(=O)[C@@H](O)CO)C[C@@]2(C)[C@@H](C)O)cc1OC1CN(c2ccc(C3CC3)cn2)C1 [Compound 034, (S)-1-((3S,4S)-4-(3-((1-(5-cyclopropylpyridin-2-yl)azetidin-3-yl)oxy)-4-methoxyphenyl)-3-((R)-1-hydroxyethyl)-3-methylpyrrolidin-1-yl)-2,3-dihydroxypropan-1-one] | 0.25 | 11.8 | 2.96 | 0.32 | 76.4 | 85.6
COc1ccc([C@@H]2CN(C(=O)[C@@H](O)CO)C[C@@]2(C)[C@@H](C)O)cc1OC1CN(c2cc(C)c(C#N)cn2)C1 [Compound 012, 6-(3-(5-((3S,4S)-1-((S)-2,3-dihydroxypropanoyl)-4-((R)-1-hydroxyethyl)-4-methylpyrrolidin-3-yl)-2-methoxyphenoxy)azetidin-1-yl)-4-methylnicotinonitrile] | 2.09 | 0.27 | 0.56 | 2.52 |  | 
COc1ccc([C@@H]2CN(C(=O)[C@@H](O)CO)C[C@@]2(C)[C@@H](C)O)cc1OC1CN(c2ccc(C)c(C#N)n2)C1 [Compound 003, 6-(3-(5-((3S,4S)-1-((S)-2,3-dihydroxypropanoyl)-4-((R)-1-hydroxyethyl)-4-methylpyrrolidin-3-yl)-2-methoxyphenoxy)azetidin-1-yl)-3-methylpicolinonitrile] | 0.41 | 0.95 | 0.39 | 1.48 |  | 
COc1ccc([C@@H]2CN(C(=O)[C@@H](O)CO)C[C@@]2(C)[C@@H](C)O)cc1OC1CN(c2ccc(OC(C)C)cn2)C1 [Compound 028, (S)-2,3-dihydroxy-1-((3S,4S)-3-((R)-1-hydroxyethyl)-4-(3-((1-(5-isopropoxypyridin-2-yl)azetidin-3-yl)oxy)-4-methoxyphenyl)-3-methylpyrrolidin-1-yl)propan-1-one] | 2.22 | 1.39 | 3.08 | 2.94 |  | 
COc1ccc(N2CC(Oc3cc([C@@H]4CN(C(=O)[C@@H](O)CO)C[C@@]4(C)[C@@H](C)O)ccc3OC)C2)nc1 [Compound 015, (S)-2,3-dihydroxy-1-((3S,4S)-3-((R)-1-hydroxyethyl)-4-(4-methoxy-3-((1-(5-methoxypyridin-2-yl)azetidin-3-yl)oxy)phenyl)-3-methylpyrrolidin-1-yl)propan-1-one] | 0.68 | 1.28 | 0.87 | 3.34 |  | 
COc1ccc([C@@H]2CN(C(=O)[C@@H](O)CO)C[C@@]2(C)[C@@H](C)O)cc1OC1CN(c2ncc(Cl)cc2F)C1 [Compound 009, (S)-1-((3S,4S)-4-(3-((1-(5-chloro-3-fluoropyridin-2-yl)azetidin-3-yl)oxy)-4-methoxyphenyl)-3-((R)-1-hydroxyethyl)-3-methylpyrrolidin-1-yl)-2,3-dihydroxypropan-1-one] | 0.78 | 5.99 | 4.67 | 7.57 |  | 47.6
COc1ccc([C@@H]2CN(C(=O)[C@@H](O)CO)C[C@@]2(C)[C@@H](C)O)cc1OC1CN(c2ccc(C(C)C)cn2)C1 [Compound 032, (S)-2,3-dihydroxy-1-((3S,4S)-3-((R)-1-hydroxyethyl)-4-(3-((1-(5-isopropylpyridin-2-yl)azetidin-3-yl)oxy)-4-methoxyphenyl)-3-methylpyrrolidin-1-yl)propan-1-one] | 0.33 | 9.85 | 3.25 | 0.26 | 75.8 | 84
COc1ccc([C@@H]2CN(C(=O)[C@@H](O)CO)C[C@@]2(C)[C@@H](C)O)cc1OC1CN(c2ncc(C)cc2C#N)C1 [Compound 006, 2-(3-(5-((3S,4S)-1-((S)-2,3-dihydroxypropanoyl)-4-((R)-1-hydroxyethyl)-4-methylpyrrolidin-3-yl)-2-methoxyphenoxy)azetidin-1-yl)-5-methylnicotinonitrile] | 1.37 | 0.98 | 1.34 | 2.52 |  | 
COc1ccc([C@@H]2CN(C(=O)[C@@H](O)CO)C[C@@]2(C)[C@@H](C)O)cc1OC1CN(c2ncc(F)cc2Cl)C1 [Compound 014, (S)-1-((3S,4S)-4-(3-((1-(3-chloro-5-fluoropyridin-2-yl)azetidin-3-yl)oxy)-4-methoxyphenyl)-3-((R)-1-hydroxyethyl)-3-methylpyrrolidin-1-yl)-2,3-dihydroxypropan-1-one] | 6.65 | 0.91 | 6.02 | 15.1 |  | 
COc1ccc([C@@H]2CN(C(=O)[C@@H](O)CO)C[C@@]2(C)[C@@H](C)O)cc1OC1CN(c2cc(C)c(F)cn2)C1 [Compound 025, (S)-1-((3S,4S)-4-(3-((1-(5-fluoro-4-methylpyridin-2-yl)azetidin-3-yl)oxy)-4-methoxyphenyl)-3-((R)-1-hydroxyethyl)-3-methylpyrrolidin-1-yl)-2,3-dihydroxypropan-1-one] | 0.88 | 2.45 | 2.16 | 3.26 |  | 

— US20220056014A1, “PHENYLPYRROLIDINE COMPOUND AND USE THEREOF” (WUHAN HUMANWELL INNOVATIVE DRUG RESEARCH AND DEVELOPMENT …, priority 2018, published 2022)
